Data from patent US7183267B2, “β-lactamase inhibitors and methods of use thereof” (priority 2003, dated 2007).
≈ marks a conversion by molar mass, not a printed value.

Experiments:
Format in all cases: cell-based
[1] = system: methicillin resistant S. aureus from Stanford University Hospital (MRSA-SU); assay: Matrix system: oxacillin plus β-lactamase inhibitor, MRSA-SU
Experimental: (§1) To each well of a 96 well microtiter plate was added 47.5 μl of MHB. A volume of 2.5 μl of each dilution of oxacillin was then transferred to appropriate wells containing the medium. All wells, except the sterility control wells, were then inoculated with 50 μl of a diluted cell suspension to give a final volume of 100 μl and a final cell density of 5×10^4 CFU/well. The volume in the sterility control wells was adjusted to 100 μl with MHB. A sterile pipette tip was used to mix the contents of each well (one tip was used going from the low to the high concentration in the same column). The microtiter plates were covered with the lids and were placed in large Stratagene Big Blue plates (Cat. # 400041). Four large kimwipes moistened with tap water were placed near the edges of the Stratagene plates to prevent evaporation of the medium. The microtiter plates were incubated for at least 24 hours at 35° C. The plates were then evaluated for growth in each well. Controls included: medium sterility and negative control (medium and bacteria only).
(§2) A numerical code was used to evaluate the extent of growth as indicated below. • 0: absence of growth • 1: barely visible (faint) growth • 2: fair growth but less than the negative solvent control • 3: growth is equivalent to the negative solvent control.
(§3) The lowest dose at which no visible growth is observed was determined to be the MIC value.
The effect of the four compounds of the present invention on oxacillin resistance of the MRSA strains was determined using a matrix system. The β-lactamase inhibitors were tested at 5 doses against up to eleven concentrations of oxacillin. […] A 96-well microtiter plate was used for the matrix system. The procedure was identical to that described above for the MIC determination, with the exception that both oxacillin and one each of the β-lactamase inhibitors was added, 2.5 μl each, to the wells prior to addition of the test organisms.
Matrix Study:Oxacillin and Compound FL201 with MRSA-SU
Matrix Study: Oxacillin and Compound FL202 with MRSA-SU

[2] = system: methicillin resistant S. aureus from Stanford University Hospital (MRSA-SU); assay: MIC assay, broth microdilution, MRSA-SU; conditions: Staphylococcus aureus, MRSA, 24 h
From the text: (2) methicillin resistant S. aureus from Stanford University Hospital Clinical Microbiology/Virology Laboratory (MRSA-SU). […] Such Staphylococci are also resistant to all penicillins, and all cephalosporins, in addition to all β-lactamase inhibitor combinations (including ampicillin/sulbactarn, amoxicillin/clavulanic acid, piperacillin/tazobactam), imipenem, and meropenem; and
(§4) The strains were processed according to procedures recommended by ATCC, or procedures that are routinely used. Single colonies of each organism were picked for purification to generate pure working cultures. Prior to each experiment each strain was subcultured on a fresh Mueller-Hinton agar plate (MHA).
(§5) Inocula for the MIC assays were prepared by transferring a tiny portion of one colony from a MHA plate to 2 ml of Mueller-Hinton broth (MHB) such that the estimated cell density was about 10^7 colony forming unit (CFU)/ml. This cell suspension was then further diluted 10-fold (to 10^6 CFU/ml) by transferring the 2 ml cell suspension to 18 ml of MHB. Addition of 50 μl of this dilute cell suspension to 50 μl of growth medium yielded the desired cell density, namely about 5×10^4 CFU/well, or 5×10^5 CFU/ml.
(§6) The MIC value of oxacillin was determined using the broth microdilution procedure recommended by the National Committee of Clinical Laboratory Standards (NCCLS, 2000).
(§7) The MIC experiments were performed in duplicate in 96-well microtiter plates using MHB. A stock solution of 2.6 mg/0.5 ml was prepared in dimethylsulfoxide (DMSO). A total of 8 two-fold serial dilutions were made with DMSO. Initial oxacillin doses used were (μg/ml): 64, 32, 16, 8, 4, 2, 1, and 0.5. Doses were adjusted in the confirmatory experiment, if needed, in order to establish an actual MIC value.
as §1
(§8) The procedure used to determine the antimicrobial activity of the compounds of the present invention was identical to the broth microdilution procedure described above with the exception of the preparation of the stock solutions. Stock solution at concentration of 40.96 mg/0.5 ml was prepared in DMSO for each of the compounds. A total of 8 two-fold dilutions were then made in DMSO. A volume of 2.5 μl of each dilution was delivered to appropriate wells. The initial doses used were (μg/ml): 512, 256, 128, 64, 32, 16, 8, and 4.
as §2, §3
(§9) MIC assays were performed with oxacillin and the four compounds. Each of the compounds was tested at the following 8 doses (μg/ml): 512, 256, 128, 64, 32, 16, 8, and 4. Oxacillin was tested at the following 8 doses (μg/ml): 64, 32, 16, 8, 4, 2, 1, and 0.5.

[3] = system: methicillin sensitive S. aureus ATCC 25923 (MSSA); assay: MIC assay, broth microdilution, MSSA; conditions: Staphylococcus aureus, 24 h
Experimental: (3) methicillin sensitive S. aureus ATCC 25923 (MSSA). This strain was obtained from ATCC and was used as a control.
as §4, §5, §6, §7, §1, §8, §2, §3, §9

`O=C(OCc1ccccc1)c1cc(B(O)O)cc([N+](=O)[O-])c1` [Compound F1201] was tested, and the “MIC (oxacillin)” value ([1]; Table 17, in presence of F1201 2 μg/ml) was 64 µg/mL, the “MIC (oxacillin)” value ([1]; Table 17, in presence of F1201 4 μg/ml) was 16 µg/mL and the “MIC (oxacillin)” value ([1]; Table 17, in presence of F1201 8 μg/ml) was 0.5 µg/mL. The “MIC (oxacillin)” value ([1]; Table 17, in presence of F1201 16 μg/ml) was <0.064 µg/mL, the growth score ([1]; Table 17, oxacillin 0, F1201 2 μg/ml) was 3 and the growth score ([1]; Table 17, oxacillin 0, F1201 4 μg/ml) was 2. The growth score ([1]; Table 17, oxacillin 0, F1201 8 μg/ml) was 2, the growth score ([1]; Table 17, oxacillin 0, F1201 16 μg/ml) was 1 and the growth score ([1]; Table 17, oxacillin 0, F1201 32 μg/ml) was 0. For the same compound, the growth score ([1]; Table 17, oxacillin 0.064 μg/ml + F1201 2 μg/ml) was 2, the growth score ([1]; Table 17, oxacillin 0.064 μg/ml + F1201 4 μg/ml) was 2 and the growth score ([1]; Table 17, oxacillin 0.064 μg/ml + F1201 8 μg/ml) was 1. It also gave a growth score ([1]; Table 17, oxacillin 0.064 μg/ml + F1201 16 μg/ml) of 0, a growth score ([1]; Table 17, oxacillin 0.064 μg/ml + F1201 32 μg/ml) of 0 and a growth score ([1]; Table 17, oxacillin 0.125 μg/ml + F1201 2 μg/ml) of 2. The growth score ([1]; Table 17, oxacillin 0.125 μg/ml + F1201 4 μg/ml) was 2, the growth score ([1]; Table 17, oxacillin 0.125 μg/ml + F1201 8 μg/ml) was 1 and the growth score ([1]; Table 17, oxacillin 0.125 μg/ml + F1201 16 μg/ml) was 0. The growth score ([1]; Table 17, oxacillin 0.125 μg/ml + F1201 32 μg/ml) was 0, the growth score ([1]; Table 17, oxacillin 0.25 μg/ml + F1201 2 μg/ml) was 2 and the growth score ([1]; Table 17, oxacillin 0.25 μg/ml + F1201 4 μg/ml) was 1. The growth score ([1]; Table 17, oxacillin 0.25 μg/ml + F1201 8 μg/ml) was 1, the growth score ([1]; Table 17, oxacillin 0.25 μg/ml + F1201 16 μg/ml) was 0 and the growth score ([1]; Table 17, oxacillin 0.25 μg/ml + F1201 32 μg/ml) was 0. For the same compound, the growth score ([1]; Table 17, oxacillin 0.5 μg/ml + F1201 2 μg/ml) was 2, the growth score ([1]; Table 17, oxacillin 0.5 μg/ml + F1201 4 μg/ml) was 1 and the growth score ([1]; Table 17, oxacillin 0.5 μg/ml + F1201 8 μg/ml) was 0. It also gave a growth score ([1]; Table 17, oxacillin 0.5 μg/ml + F1201 16 μg/ml) of 0, a growth score ([1]; Table 17, oxacillin 0.5 μg/ml + F1201 32 μg/ml) of 0 and a growth score ([1]; Table 17, oxacillin 1 μg/ml + F1201 2 μg/ml) of 1. For the same compound, the growth score ([1]; Table 17, oxacillin 1 μg/ml + F1201 4 μg/ml) was 1, the growth score ([1]; Table 17, oxacillin 1 μg/ml + F1201 8 μg/ml) was 0 and the growth score ([1]; Table 17, oxacillin 1 μg/ml + F1201 16 μg/ml) was 0. The growth score ([1]; Table 17, oxacillin 1 μg/ml + F1201 32 μg/ml) was 0, the growth score ([1]; Table 17, oxacillin 2 μg/ml + F1201 2 μg/ml) was 1 and the growth score ([1]; Table 17, oxacillin 2 μg/ml + F1201 4 μg/ml) was 1. For the same compound, the growth score ([1]; Table 17, oxacillin 2 μg/ml + F1201 8 μg/ml) was 0, the growth score ([1]; Table 17, oxacillin 2 μg/ml + F1201 16 μg/ml) was 0 and the growth score ([1]; Table 17, oxacillin 2 μg/ml + F1201 32 μg/ml) was 0. For the same compound, the growth score ([1]; Table 17, oxacillin 4 μg/ml + F1201 2 μg/ml) was 1, the growth score ([1]; Table 17, oxacillin 4 μg/ml + F1201 4 μg/ml) was 1 and the growth score ([1]; Table 17, oxacillin 4 μg/ml + F1201 8 μg/ml) was 0. It also gave a growth score ([1]; Table 17, oxacillin 4 μg/ml + F1201 16 μg/ml) of 0, a growth score ([1]; Table 17, oxacillin 4 μg/ml + F1201 32 μg/ml) of 0 and a growth score ([1]; Table 17, oxacillin 16 μg/ml + F1201 2 μg/ml) of 1. For the same compound, the growth score ([1]; Table 17, oxacillin 16 μg/ml + F1201 4 μg/ml) was 0, the growth score ([1]; Table 17, oxacillin 16 μg/ml + F1201 8 μg/ml) was 0 and the growth score ([1]; Table 17, oxacillin 16 μg/ml + F1201 16 μg/ml) was 0. The growth score ([1]; Table 17, oxacillin 16 μg/ml + F1201 32 μg/ml) was 0, the growth score ([1]; Table 17, oxacillin 64 μg/ml + F1201 2 μg/ml) was 0 and the growth score ([1]; Table 17, oxacillin 64 μg/ml + F1201 4 μg/ml) was 0. It also gave a growth score ([1]; Table 17, oxacillin 64 μg/ml + F1201 8 μg/ml) of 0, a growth score ([1]; Table 17, oxacillin 64 μg/ml + F1201 16 μg/ml) of 0 and a growth score ([1]; Table 17, oxacillin 64 μg/ml + F1201 32 μg/ml) of 0. The growth score ([1]; Table 17, oxacillin 128 μg/ml + F1201 2 μg/ml) was 0, the growth score ([1]; Table 17, oxacillin 128 μg/ml + F1201 4 μg/ml) was 0 and the growth score ([1]; Table 17, oxacillin 128 μg/ml + F1201 8 μg/ml) was 0. It also gave a growth score ([1]; Table 17, oxacillin 128 μg/ml + F1201 16 μg/ml) of 0, a growth score ([1]; Table 17, oxacillin 128 μg/ml + F1201 32 μg/ml) of 0 and a growth score ([1]; Table 17, oxacillin 256 μg/ml + F1201 2 μg/ml) of 0. The growth score ([1]; Table 17, oxacillin 256 μg/ml + F1201 4 μg/ml) was 0, the growth score ([1]; Table 17, oxacillin 256 μg/ml + F1201 8 μg/ml) was 0 and the growth score ([1]; Table 17, oxacillin 256 μg/ml + F1201 16 μg/ml) was 0. It also gave a growth score ([1]; Table 17, oxacillin 256 μg/ml + F1201 32 μg/ml) of 0, an MIC [2] of 32 µg/mL and an MIC [3] of 32 µg/mL (≈ 106 µM).
